Laboratory results published in PubChem BioAssay (NCI).
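How tested: cells in 96-well plates exposed to compound for 48 hours at five concentrations. Abbreviation: GI50, concentration required for 50% inhibition of growth. TGI denotes the concentration required for complete inhibition of growth.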

What was measured:
Experiment in all cases: NCI anticancer screen, dose series, 48 h
[1] = system: CCRF-CEM leukemia
[2] = system: SNB-19 CNS
[3] = system: OVCAR-5 ovarian
[4] = system: RPMI-8226 leukemia
[5] = system: NCI-H460 lung
[6] = system: MCF7 breast
[7] = system: K-562 leukemia
[8] = system: RXF 393 renal
[9] = system: SK-MEL-2 melanoma
[10] = system: HCC-2998 colon
[11] = system: SF-268 CNS
[12] = system: UACC-257 melanoma
[13] = system: SN12C renal
[14] = system: SF-539 CNS
[15] = system: KM12 colon
[16] = system: SR leukemia
[17] = system: LOX IMVI melanoma
[18] = system: CAKI-1 renal
[19] = system: NCI-H226 lung
[20] = system: A498 renal
[21] = system: 786-0 renal
[22] = system: MDA-N
[23] = system: HT29 colon
[24] = system: MDA-MB-435
[25] = system: OVCAR-4 ovarian
[26] = system: U251 CNS
[27] = system: NCI-H522 lung
[28] = system: HCT-116 colon
[29] = system: NCI-H23 lung
[30] = system: MOLT-4 leukemia
[31] = system: HOP-92 NSCLC
[32] = system: NCI/ADR-RES ovarian
[33] = system: HCT-15 colon
[34] = system: HOP-62 NSCLC
[35] = system: M14 melanoma
[36] = system: TK-10 renal
[37] = system: SK-MEL-5 melanoma
[38] = system: IGROV1 ovarian
[39] = system: OVCAR-3 ovarian
[40] = system: UO-31 renal
[41] = system: MALME-3M melanoma
[42] = system: UACC-62 melanoma
[43] = system: EKVX NSCLC
[44] = system: SW-620 colon
[45] = system: A549 NSCLC
[46] = system: HS 578T breast
[47] = system: COLO 205 colon
[48] = system: T-47D breast
[49] = system: SNB-75 CNS
[50] = system: SK-OV-3 ovarian
[51] = system: MDA-MB-231 breast
[52] = system: BT-549 breast
[53] = system: OVCAR-8 ovarian
[54] = system: HL-60(TB) leukemia
[55] = system: PC-3 prostate
[56] = system: DU-145 prostate
[57] = system: ACHN renal
[58] = system: SK-MEL-28 melanoma
[59] = system: SF-295 CNS

## N#C/C(=C/NC(=S)NCc1ccccc1)C(N)=O
[1]
  TGI: > 100 µM
[2]
  TGI: > 100 µM
[3]
  TGI: > 100 µM
[4]
  TGI: > 100 µM
[5]
  TGI: > 100 µM
[6]
  TGI: > 100 µM
[7]
  TGI: > 100 µM
[8]
  TGI: > 100 µM
[9]
  TGI: > 100 µM
[10]
  TGI: > 100 µM
[11]
  TGI: > 100 µM
[12]
  TGI: > 100 µM
[13]
  TGI: > 100 µM
[14]
  TGI: > 100 µM
[15]
  TGI: > 100 µM
[16]
  TGI: > 100 µM
[17]
  TGI: > 100 µM
[18]
  TGI: > 100 µM
[19]
  TGI: > 100 µM
[20]
  TGI: > 100 µM
[21]
  TGI: > 100 µM
[22]
  TGI: > 100 µM
[23]
  TGI: > 100 µM
[24]
  TGI: > 100 µM
[25]
  TGI: > 100 µM
[26]
  TGI: > 100 µM
[27]
  TGI: > 100 µM
[28]
  TGI: > 100 µM
[29]
  TGI: > 100 µM
[30]
  TGI: > 100 µM
[31]
  TGI: > 100 µM
[32]
  TGI: > 100 µM
[33]
  TGI: > 100 µM
[34]
  TGI: > 100 µM
[35]
  TGI: > 100 µM
[36]
  GI50: > 100 µM
  TGI: > 100 µM
[37]
  TGI: > 100 µM
[38]
  TGI: > 100 µM
[39]
  TGI: > 86.1 µM
[40]
  TGI: > 100 µM
[41]
  TGI: > 100 µM
[42]
  TGI: > 100 µM
[43]
  TGI: > 100 µM
[44]
  TGI: > 100 µM
[45]
  TGI: > 100 µM
[46]
  TGI: > 100 µM
[47]
  TGI: > 100 µM
[48]
  TGI: > 100 µM
[49]
  TGI: > 100 µM
[50]
  TGI: > 100 µM
[51]
  TGI: > 100 µM
[52]
  GI50: > 100 µM
  TGI: > 100 µM
[53]
  TGI: > 100 µM
[54]
  TGI: > 100 µM
[55]
  TGI: > 100 µM
[56]
  TGI: > 100 µM
[57]
  TGI: > 100 µM
[58]
  TGI: > 100 µM
[59]
  TGI: > 100 µM

## N#Cc1c2c(c(Nc3ccc(F)cc3)n3c1nc1ccccc13)CCCC2
[1]
  TGI: > 100 µM
[2]
  TGI: > 85.2 µM
[3]
  TGI: > 100 µM
[4]
  TGI: > 100 µM
[5]
  TGI: > 100 µM
[6]
  TGI: > 100 µM
[7]
  TGI: > 100 µM
[8]
  TGI: > 86 µM
[9]
  TGI: > 100 µM
[10]
  TGI: > 100 µM
[11]
  TGI: > 100 µM
[12]
  TGI: > 100 µM
[13]
  TGI: > 100 µM
[14]
  TGI: > 100 µM
[15]
  TGI: > 100 µM
[16]
  TGI: > 100 µM
[17]
  TGI: > 100 µM
[18]
  TGI: > 100 µM
[19]
  TGI: > 100 µM
[20]
  TGI: > 100 µM
[21]
  TGI: > 100 µM
[22]
  TGI: > 100 µM
[23]
  TGI: > 100 µM
[24]
  TGI: > 100 µM
[25]
  TGI: > 100 µM
[26]
  TGI: > 100 µM
[27]
  TGI: > 100 µM
[28]
  TGI: > 100 µM
[29]
  TGI: > 100 µM
[30]
  TGI: > 100 µM
[31]
  TGI: > 100 µM
[32]
  TGI: > 100 µM
[33]
  TGI: > 100 µM
[34]
  TGI: > 100 µM
[35]
  TGI: > 100 µM
[36]
  TGI: > 100 µM
[37]
  TGI: > 100 µM
[38]
  TGI: > 100 µM
[39]
  TGI: > 100 µM
[40]
  TGI: > 100 µM
[41]
  TGI: > 100 µM
[42]
  TGI: > 100 µM
[43]
  TGI: > 100 µM
[44]
  TGI: > 100 µM
[45]
  TGI: > 100 µM
[46]
  TGI: > 100 µM
[47]
  TGI: > 100 µM
[48]
  TGI: > 100 µM
[49]
  TGI: > 100 µM
[50]
  TGI: > 100 µM
[51]
  TGI: > 100 µM
[52]
  TGI: > 100 µM
[53]
  TGI: > 100 µM
[54]
  TGI: > 100 µM
[55]
  TGI: > 100 µM
[56]
  TGI: > 100 µM
[57]
  TGI: > 100 µM
[58]
  TGI: > 100 µM
[59]
  TGI: > 100 µM

## CN1c2ccc(O)c(O)c2-c2cc(O)cc3c2C1CCC3 (configuration not stated)
[1]
  TGI: 9.61 µM
[2]
  TGI: > 100 µM
[3]
  TGI: 50.7 µM
[4]
  TGI: 25.8 µM
[5]
  TGI: > 59.5 µM
[6]
  TGI: 41.5 µM
[7]
  TGI: 40.8 µM
[8]
  TGI: 24.3 µM
[9]
  TGI: 58.6 µM
[10]
  TGI: 49.1 µM
[11]
  TGI: 33 µM
[12]
  TGI: 42.2 µM
[13]
  TGI: 51.7 µM
[14]
  TGI: 42.2 µM
[15]
  TGI: > 61 µM
[16]
  TGI: 24.9 µM
[17]
  TGI: 26.3 µM
[18]
  TGI: 48.9 µM
[19]
  TGI: > 60.2 µM
[20]
  TGI: > 100 µM
[21]
  TGI: 35.5 µM
[22]
  TGI: 38.3 µM
[23]
  TGI: 66.2 µM
[24]
  TGI: 31 µM
[25]
  TGI: 28.4 µM
[26]
  TGI: > 65 µM
[27]
  TGI: 28.4 µM
[28]
  TGI: 47.2 µM
[29]
  TGI: 58.3 µM
[30]
  TGI: 35.6 µM
[31]
  TGI: 33.3 µM
[32]
  TGI: > 64.6 µM
[33]
  TGI: 59.4 µM
[34]
  TGI: 32.6 µM
[35]
  TGI: 34.8 µM
[36]
  TGI: 32.9 µM
[37]
  TGI: 35.5 µM
[38]
  TGI: 27.9 µM
[39]
  TGI: 19.5 µM
[40]
  TGI: 29.6 µM
[41]
  TGI: 31.3 µM
[42]
  TGI: 32.3 µM
[43]
  TGI: 46.9 µM
[44]
  TGI: 63.5 µM
[45]
  TGI: > 74.1 µM
[46]
  TGI: > 72.9 µM
[47]
  TGI: 47.5 µM
[48]
  TGI: 42.6 µM
[49]
  TGI: 34.4 µM
[50]
  TGI: > 100 µM
[51]
  TGI: > 66.1 µM
[52]
  TGI: 39.8 µM
[53]
  TGI: 65.6 µM
[54]
  TGI: 39.2 µM
[55]
  TGI: 49.2 µM
[56]
  TGI: 30.6 µM
[57]
  TGI: 31.3 µM
[58]
  TGI: 48.7 µM
[59]
  TGI: > 100 µM

## C=CCN1C(N)=C(C#N)C(C#N)(C#N)C1CCC (configuration not stated)
[1]
  TGI: > 100 µM
[2]
  TGI: > 100 µM
[3]
  TGI: > 100 µM
[4]
  TGI: > 100 µM
[5]
  TGI: > 100 µM
[6]
  TGI: > 100 µM
[7]
  TGI: > 100 µM
[8]
  TGI: > 100 µM
[9]
  TGI: > 100 µM
[10]
  TGI: > 100 µM
[11]
  TGI: > 100 µM
[12]
  TGI: > 100 µM
[13]
  TGI: > 100 µM
[14]
  TGI: > 100 µM
[15]
  TGI: > 100 µM
[16]
  TGI: > 100 µM
[17]
  TGI: > 100 µM
[18]
  TGI: > 100 µM
[19]
  TGI: > 100 µM
[20]
  TGI: > 100 µM
[21]
  TGI: > 100 µM
[22]
  TGI: > 100 µM
[23]
  TGI: > 100 µM
[24]
  TGI: > 100 µM
[25]
  TGI: > 100 µM
[26]
  TGI: > 100 µM
[27]
  TGI: > 100 µM
[28]
  TGI: > 100 µM
[29]
  TGI: > 100 µM
[30]
  TGI: > 100 µM
[31]
  TGI: > 100 µM
[32]
  TGI: > 100 µM
[33]
  TGI: > 100 µM
[34]
  TGI: > 100 µM
[35]
  TGI: > 100 µM
[36]
  TGI: > 100 µM
[37]
  TGI: > 100 µM
[38]
  TGI: > 100 µM
[39]
  TGI: > 100 µM
[40]
  TGI: > 100 µM
[41]
  TGI: > 100 µM
[42]
  TGI: > 100 µM
[43]
  TGI: > 100 µM
[44]
  TGI: > 100 µM
[45]
  TGI: > 100 µM
[46]
  TGI: > 100 µM
[47]
  TGI: > 100 µM
[48]
  TGI: > 100 µM
[49]
  TGI: > 100 µM
[50]
  TGI: > 100 µM
[51]
  TGI: > 100 µM
[52]
  TGI: > 100 µM
[53]
  TGI: > 100 µM
[54]
  TGI: > 100 µM
[55]
  TGI: > 100 µM
[56]
  TGI: > 100 µM
[57]
  TGI: > 100 µM
[59]
  TGI: > 100 µM
